Patent US10660934B2, “Neuroprotective peptide” (SENJU PHARMACEUTICAL CO., LTD., priority 2016, dated 2020)
Where no end group is shown, it is not given here.

Columns and labels:
[1] = system: rat retinal ganglion cells (RGC); experiment: Hypoxia-induced cell death assay in rat retinal ganglion cells (Calcein-AM/Ethidium homodimer); format: cell-based; details: for Rate of cell-death suppression (%): 24 hours hypoxia
Description: Retinal ganglion cells were isolated by a magnetic activated cell sorting method (MACS). Retinas were harvested from neonatal rats (Slc: Sprague-Dawley, 7-day old) and the tissue was dissociated using a Neural Tissue Dissociation Kit (Miltenyi Biotec, 130-094-802). Then, using a Retinal Ganglion Cell Isolation Kit (Miltenyi Biotec, 130-096-209), the endothelial cells and microglia were removed, and a positive selection for CD90.1^+ RGC was carried out by means of CD90.1MicroBeads. The test was carried out with the approval of the Animal Test Ethics Committee based on the Act on Welfare and Management of Animals (Act number 105 of Oct. 1, 1973, last revision: Act number 38 of Jun. 12, 2013), etc. 2. Cell Culture
After suspending the isolated RGC in a neurobasal medium (Gibco Corporation, 12348-017) containing a B27 supplement (Invitrogen, 0080085-SA), 1 mM of L-glutamine (Gibco, 25030), 50 ng/ml of BDNF (Peprotech, 25-02), 50 ng/ml of CNTF (Peprotech, 450-50) and 5 μm of Forskolin. (Sigma, F6886), they were seeded on a 96-well plate (Corning, 354596), ‘which’ was coated with poly-D-lysine/laminin, at a density of 5×10^3 cells/100 μl/well, and incubated at 37° C. and 5% CO2 for three days.
After having replaced the media with neurobasal media comprising a B27 supplement, 1 mM of L-glutamine […] and each peptide, a hypoxia state (O2 concentration of 0.1% or less) was induced by putting the plate in an Anaero Pack rectangular jar with Anaero Pack Kenki 5% (Mitsubishi Gas Chemical Company, Inc., A-07) with hermetically sealing, and incubating at 37° C. After incubating for 24 hours under hypoxia condition, Calcein-AM and Ethidium homodimer (Invitrogen, L3224) were added to the media. As a result of staining the cells, it was possible to distinguish between the viable cells and the dead cells. The number of viable cells and dead cells were measured using an Image Pro plus, and the rate of viability was given as “the proportion of the viable cell count relative to the total cell count.” 4. Test Results
The isolation and incubation of RGC were performed by the same methods as for Test Example 3-1, and 2.
Commercially available PRP4 (Abnova, H0011272-Q01) having the sequence of SEQ ID NO: 2, was used for Peptide 5. The evaluation of Peptide 5 was carried out by the same evaluation method as used for Test Example 3-3.

[2] = Stability in a vitreous humor solution; format: in vitro ADME, rabbit
Description: (Two) rabbits were euthanized by intravenous administration of 5 ml of a pentobarbital sodium solution, and then their eyeballs were removed. An incision was made in the equatorial region of each eyeball and the vitreous humor-solution was harvested from each eyeball using a syringe (18G injection needle) at the site of incision. The mixed vitreous humor solution was filtered with a cell strainer (40 μm) and the filtrate was used as the vitreous humor solution for the stability tests. 600 μl of the vitreous humor solution was mixed with 1.2 μl of a Primocin at a concentration of 50 mg/ml and the resultant solution was used as sample solution. 270 μl of the sample solution and […] in a 30 μl aqueous solution were mixed and the resultant mixture was used as the test sample. The test sample was incubated at 37° C. […] The analysis samples were stored frozen at −20° C. until it was time to take readings using them. […] Then, the concentration of Peptide 1 in each sample was analyzed using liquid chromatography. The concentrations were calculated from the area values obtained using the external standard method. […]
The residual rate was calculated using the following formula: Residual rate=(the concentration of peptide after 7 days' incubation/the concentration of peptide in the test samples immediately after they were prepared)×100 [Formula 1]

SH-SY5Y cells = experiment: Hypoxia-induced cell death assay in human neuroblastoma SH-SY5Y cells (LDH); format: cell-based; details: 100 nM, 24 hours hypoxia (O2 0.1% or less), glucose-free DMEM, mean ± standard error (n = 3)
Description: SH-SY5Y cells (ATCC) were sustainably cultured in a DMEM/F12 medium (Invitrogen, 11330-032) supplemented with a 10% serum (Invitrogen, 10062-147) under the condition of 37° C. and 5% CO2.
The cells were seeded on a 96-well plate (Iwaki, 3860-096) at a density of 2×10^4 cells/100 μl/well. The following day the medium was replaced with a DMEM/F12 medium comprising a 1% serum and 10 μM of a retinoic acid (Wako, 302-79-4) and differentiated by incubation for 2 days. After replacing the medium with a glucose-free DMEM medium supplemented with 100 nM of Peptide 1, a hypoxia state (O2 concentration of 0.1% or less) was induced by putting the plate in an Anaero Pack rectangular jar with Anaero Pack Kenki 5% (Mitsubishi Gas Chemical Company, Inc., A-07) with hermetically sealing, and culturing at 37° C. Alter culturing for 24 hours in the hypoxia state, the cell-death inhibiting rate by the peptide was calculated by measuring the amount of LDH in the cells and the medium, using an LDH cytotoxicity detection kit (Takara, MK401). Moreover, 100 nM of an IGF-1 was used as a positive control in the experiment IGF-1 has a protective effect against nerve cell death (Mol. Cell Neurosci, 2011, 47 (3), 181-190). 3. Test Results

[3] = 100 nM, mean ± standard error (n = 14-19)

HPPPPPFQ (peptide of PRP4) [Peptide 3]
Rate of cell-death suppression (%) [1, 3]: 27.2 ± 6.6 %

HPPPPPFQNQQ (peptide of PRP4) [Peptide 2]
Rate of cell-death suppression (%) [1, 3]: 26.4 ± 4.8 %

HPPPPPFQNQQRPP [Peptide 1, HPPPPPFQNQQRPP]
stability in a vitreous humor solution (in words) ([2]; 7 days at 37° C.): stable in a vitreous humor solution | remaining at 168 h ([2]; vitreous humor solution (filtered, from rabbit eyeballs), after 7 days' incubation at 37° C. in rabbit vitreous humor solution, read-out: Residual ratio (%)): 98.4%

IGF-1
Cell lethality (%) (SH-SY5Y cells): 88.1 ± 8.3 %

QQRPP (Peptide of PRP4) [Peptide 4]
Rate of cell-death suppression (%) [1, 3]: 31.1 ± 7.8 %

B1: Peptide 5: Commercially available PRP4 (Abnova, H0011272-Q01) having the sequence of SEQ ID NO: 2 (protein)
chain: QSTDNDVNYEDFTFTIPDVEDSSQRPDQGPQRPPPEGLLPRPPGDSGNQDDGPQQRPPKPGGHHRHPPPPPFQNQQRPPQRGHRQLSLPRFPSVSLQEAS
modifications: commercial recombinant protein, possible tag; Peptide of PRP4
Rate of cell-death suppression (%) ([1]; 10 nM, mean ± standard error (n = 12 to 18)): 66.2 ± 14.4 % | suppression of cell death from hypoxia (in words) ([1]; rat RGC, Test Example 4, 10 nM): significantly suppressed the cell death from hypoxia
